Entries after “also recorded” stand apart in the source; their conditions may differ. Read-outs that look alike come from different tables or passages of the source.
Experiments:
[1] = test system: B16 melanotic melanoma cells; test: Growth inhibition, B16 melanotic melanoma cells in culture; type: cell-based, murine
Procedure: As a consequence, they are the strongest competitive inhibitors of human GlxI yet described, Table 1. […] With both cell lines there was some correlation between the Ki values of the enediol analogs and the IC50 values of the corresponding diethyl esters.
^d Sp-bromobenzylglutathione diethyl ester. Cells were incubated for
48 h in RPMI 1640/10% fetal calf serum (37° C.) in the absence and
in the presence of enzyme inhibitor. After the initial addition of
inhibitor at time zero, fresh inhibitor was added every 12 h in order to
compensate partially for the loss of inhibitor due to spontaneous
hydrolytic deethylation in the growth medium.

[2] = Stability in human serum; type: in vitro ADME
Procedure: To 0.5 ml portions of either human serum or mouse serum, at 37° C., was added compound 2(Et)2 to an initial concentration of approximately 0.15 mM. As a function of time, 0.1 ml aliquots of the incubation mixture were transferred to separate microfuge tubes. The samples were immediately deproteinized by the addition of 70% ethanol (0.9 ml). After incubation for 30 minutes at 37° C., the protein precipitate was sedimented by centrifugation at […]. The supernatants were then fractionated by reverse-phase HPLC, as described above, and the integrated intensities of the peaks corresponding to 2(Et)2 determined. The rate constants for deethylation were calculated from the first-order rate of loss of 2(Et)2 as a function of time.
To identify a murine model suitable for in vivo testing of the GlxI inhibitors, the stability of 2(Et)2 was evaluated in human serum and in serum samples obtained from different strains of tumor-bearing mice. In human serum, 2(Et)2 undergoes slow first-order hydrolysis to a mixture of diacid and monoethyl esters, as monitored by reverse-phase HPLC (FIG. 6). For serum samples obtained from four different individuals, T1/2 =9.1±5.3 hours (n=4). […]

[3] = n-octanol/water partition coefficient
[4] = test system: L1210 cells; test: Cell permeability / intracellular appearance of enediol analog in L1210 cells; type: in vitro ADME, murine
Procedure: In order to understand the mechanism of intracellular delivery of the enediol analogs, suspensions of L1210 cells were separately incubated with the diacid 2 and with the corresponding diethyl ester 2(Et)2. The rate of appearance of these species in the intracellular fraction was then monitored as a function of time by reverse-phase HPLC (FIG. 4). […] After 90 minutes, the concentration of 2 decreased, possibly due to a combination of factors including (a) 10-20% cell death over the course of the experiment, (b) hydrolytic deethylation of extracellular 2(Et)2, and (c) GlxII-catalyzed decarbamoylation of intracellular 2.
To suspensions of L1210 cells (~1.5(10^6 cells/ml) in RPMI 1640 medium, containing 10% heat-inactivated fetal calf serum, gentamycin (10 μg/ml) and L-glutamate, at 37° C., were added fixed concentrations of 2a. Aliquots (1 ml) were removed from the cell suspension as a function of time, overlaid onto 0.4 ml of silicone oil (SF-1250 silicone fluids, General Electric Co., Silicone Products Division, Waterford, N.Y.) contained in an eppendorf centrifuge tube and centrifuged at 11,000×g (15 min) at 25° C. The supernatant and silicone oil were decanted from the cell pellet and residual oil removed from the inside of the centrifuge tube with a cotton swab. To the pellet was added 1 ml 70% ethanol in water and the suspension sonicated for 5 minutes. The denatured protein was sedimented by centrifugation (11,000×g, 15 min) and the clear supernatant was removed. The supernatant was brought to dryness under a stream of argon, and the resulting residue was fractionated by reverse-phase HPLC (Waters μBondapak C18, 0.78(30 cm), using a mobile phase composed of methanol:water (1:1) containing 0.25% acetic acid at a flow rate of 2 ml/min. The integrated intensity of the peak corresponding S-(N-p-chlorophenyl-N-hydroxycarbamoyl) glutathione was determined at λ=260 nm. Concentrations were extrapolated from standard curves that were linear in the range 0.1 to 4.0 nmoles (r=0.997).

[5] = Stability in mouse serum/plasma; type: in vitro ADME
[6] = test system: L1210 cells; test: Growth inhibition / cytotoxicity, murine leukemia L1210 cells in culture; type: cell-based; conditions: for IC50: L1210, 48 h; for greater potency of sulfoxide versus diethyl ester: L1210 cells
[7] = target: human erythrocyte GlxI; conditions: of the unethylated species with human erythrocyte GlxI (17); read-out: Ki, competitive inhibition constant; cited from earlier work
[8] = test system: splenic lymphocytes; test: Toxicity toward nonproliferating splenic lymphocytes; type: cell-based
Text: Conditions: See Table 1. Error bars represent standard deviations for triplicate determinations. Different symbols correspond to experiments carried out on different days.
This is illustrated for 2(Et)2 and S-p-bromobenzylglutathionediethyl ester by the dose-response curves of FIG. 3. […] Therefore, tumor cells might not be able to detoxify the inhibitors as rapidly as normal cells. In order to determine whether this could be a factor in the present study, the glyoxalase activities in both L1210 cells and splenic lymphocytes were determined. Indeed, while the GlxI activities in the two cell lines are nearly equal, the GlxII activity in L1210 cells is about 10-fold lower than that in splenic lymphocytes. The activities of GlxI and GlxII in L1210 cells were respectively 0.31±0.03 U/mg and 0.02±0.003 U/mg, while the activities in splenic lymphocytes were respectively 0.36±0.03U/mg and 0.20±0.03 U/mg.

[9] = Acyl-interchange reaction with glutathione in a cell-free system; type: physicochemical
Procedure: In principle, an acyl-interchange reaction might serve as the basis of an improved prodrug strategy, provided that the acylating reagent diffuses rapidly across cell membranes and then reacts rapidly with intracellular glutathione to give the enediol analog. Three N-hydroxycarbamate thioethyl esters (2(a-c)) and the corresponding sulfoxides (3(a-c)) were prepared (FIG. 7) and their rates of acyl-interchange with glutathione in a cell free system evaluated (Table II). Sulfoxidation of N,N-di-n-propylcarbamate thioalkyl esters activates these species for acyl-interchange with glutathione. […] The N--OH function appears to inductively activate the sulfoxides for acyl-interchange, as the rate constant for 3a exceeds that of the corresponding N--CH3 derivative 3c by 13-fold. The products of the interchange reactions were confirmed as the corresponding enediol analogs, on the basis that their UV spectra and their migratory properties on a reverse-phase C18 column were identical with those of authentic samples of enediol analog.
Second order rate constants for the
acyl-interchange reactions between glutathione and the list thioesters
CH3 CH2 XC(O)N(Y)Z + GSG ---(k2)--> GSC(O)B(Y)Z +
Conditions: Potassium phosphate buffer (50 mM), pH 7.5, 5% ethanol, […]

[10] = test system: L1210 cells; test: Cell permeability / intracellular appearance of enediol analog in L1210 cells; type: in vitro ADME, murine; remark: listed apart in the source
[11] = test system: rat adrenal pheochromocytoma PC-12 cells; conditions: literature (26); read-out: IC50, growth of PC-12 cells; cited from earlier work
[12] = test system: HL60 cells; conditions: literature (14); cited from earlier work
[13] = test system: HL60 cells; conditions: literature (15); cited from earlier work
[14] = test system: tumor cells; conditions: literature (5-8); cited from earlier work

## CCOC(=O)CNC(=O)[C@H](CSC(=O)N(O)c1ccc(Cl)cc1)NC(=O)CC[C@H](N)C(=O)OCC [2(Et)2, S-(N-p-chlorophenyl N-hydroxycarbamoyl) glutathione diethyl ester]
[1]; B16 cells in vitro
  growth inhibition / cytotoxicity in words, B16: inhibited the growth
[1]; Mus musculus, 48 h, RPMI 1640/10% fetal calf serum, 37° C., fresh inhibitor every 12 h, mean ± SD, read-out: IC50, 50% growth inhibition, B16
  IC50: 28 ± 7 µM
[2]; 37° C., FIG. 6
  first order rate constant for deethylation in human serum: 0.147 ± 0.015 h⁻¹
[2]; human, serum, n=4, read-out: T1/2 in human serum (converted)
  half-life at 150 µM: 9.1 ± 5.3 h
[3]
  logP: 0.996
[4]; L1210 cells
  intracellular uptake in words: rapid increase in intracellular [2] during the first 90 min; also recorded: linear function of extracellular [2(Et)2 ] in the range 0.01 to 1.0 mM; also recorded: Only trace amounts of the monoethyl esters and diethyl ester of 2 were found in the intracellular fractions; also recorded: high intracellular concentrations of the corresponding diacid 2
[4]; exceeds extracellular
  maximum concentration of 2 inside cells versus extracellular concentration of 2(Et)2: about three-fold
[4]; in vitro, 37° C.
  apparent first order rate constant for diffusion of diethyl ester into L1210 cells: 0.04 min⁻¹
[4]; incubated in the presence of 2(Et)2
  first order rate constant for appearance of 2 inside L1210 cells: 2.2 h⁻¹
[5]; mouse, serum, DBA/2(C57BL/6 mice, n=5, read-out: T1/2 in serum of plasma esterase-deficient mice (converted)
  half-life at 150 µM: 3.9 ± 0.6 h
[5]; mouse, serum, DBA/2, C57BL/6, NCr nu/nu and CD2 F1 mice, read-out: T1/2, deethylation in mouse serum
  half-life at 150 µM: < 0.00833 h
[6]; L1210 cells in vitro
  growth inhibition / cytotoxicity in words, L1210: inhibited the growth
[6]; Mus musculus, L1210, 48 h, 100 μM, read-out: killing of L1210 cells
  cytotoxicity at 100 µM: ~100%
[6]; Mus musculus, RPMI 1640/10% fetal calf serum, 37° C., fresh inhibitor every 12 h, mean ± SD, read-out: IC50, 50% growth inhibition, L1210
  IC50: 9.5 ± 3.8 µM
[7]
  Ki: 0.046 µM
[8]; 100 μM
  decrease in viability of splenic lymphocytes: less than 50%
[8]; L1210 cells versus splenic lymphocytes
  toxicity to splenic lymphocytes / selectivity in words: significantly more toxic to L1210 cells than to splenic lymphocytes

## CC[S+]([O-])C(=O)N(O)c1ccc(Cl)cc1 (stereo not drawn) [Compound 3a, S-(N-Hydroxy-N-p-chlorophenylcarbamoyl)ethyl sulfoxide]
[4]
  apparent first order rate constant for appearance of enediol analog inside the cells on incubation with sulfoxide: 1.41±0.03 min^-1
  intracellular uptake in words: rapid increase in the intracellular concentration of the corresponding enediol analog
  maximum intracellular concentration of inhibitor versus extracellular concentration of sulfoxide: about 10 -fold
  rate of influx of sulfoxide relative to diethyl ester 1(Et)2: 35 -fold
  time to maximum intracellular concentration of inhibitor: about 17 minutes
[9]
  rate constant relative to thioester 2a: exceed by several-fold that with the thioester 2 a
[9]; 50 mM potassium phosphate, pH 7.5, 5% ethanol, 25° C.
  k2, second order rate constant for acyl-interchange with glutathione: 30.7 ± 1.2 M⁻¹ s⁻¹
[9]; 100 mM potassium phosphate, 5% ethanol, pH 7.5, 25° C.
  second order rate constant for acyl-interchange reaction: 30.7 M⁻¹ s⁻¹
[9]; exceeds
  rate constant relative to N--CH3 derivative 3c: 13 -fold
[5]; DBA/2 mice, n=3
  first order rate constant for loss of sulfoxide from serum: 0.06 ± 0.01 min⁻¹
[5]; mouse, serum, DBA/2 mice, n=3, read-out: T1/2 of sulfoxide in serum
  half-life: 0.217 ± 0.0333 h
[10]
  reduction of intracellular glutathione concentration: less than 1%
[6]
  greater potency of sulfoxide versus diethyl ester: 10 -fold
[6]; listed as S-(N-p-chlorophenyl-N-hydroxycarbamoyl)ethylsulfoxide
  greater potency of sulfoxide versus diethyl ester: about 10 -fold
[6]; Mus musculus, fresh drug every 12 h, read-out: IC50 toward L1210 cells, sulfoxide
  IC50: 0.8 ± 0.5 µM

## CC(C)OC(=O)CNC(=O)[C@H](CSC(=O)OCC1c2ccccc2-c2ccccc21)NC(=O)CC[C@H](N)C(=O)OC(C)C [S-fluorenylmethoxycarbonyl glutathionediisopropyl ester]
[11]
  IC50: 275 µM

## N[C@@H](CCC(=O)N[C@@H](CSCc1ccc(Br)cc1)C(=O)NCC(=O)OC1CCCC1)C(=O)OC1CCCC1 [dicyclopentyl ester of S-p-bromobenzylglutathione]
[12]
  potency relative to the diethyl ester, HL60: twice as potent as the diethyl ester
[13]
  concentration of intracellular methylglyoxal: increased the measured concentration of intracellular methylglyoxal

## CC(=O)C=O [methylglyoxal]
[14]
  inhibition of tumor cells by exogenous methylglyoxal: selective inhibitory activity toward rapidly proliferating tumor cells versus nonproliferating normal cells in vitro; also recorded: inhibit the growth of tumor cells in tissue culture
